In data set [1] the test system is mammalian cells. Conditions: cited from earlier work.
Data set [2] has as its system DENV2. Briefly: Dose-response assay, viral RNA by one-step qRT-PCR. The data set is classed as cell-based, Dengue virus serotype-2 (DENV2). Conditions: HepG2 infected with DENV2, MOI 2, peptide 0-80 μM added after infection, quadruplicate experiments, ± SD. The procedure: This assay was performed to evaluate the 50% effective concentration (EC50) of the Ltc 1 peptide against DENV2. HepG2 cells were grown in six-well microplates (1.5 × 10^6 cells/well) for 24 h in quadruplicate experiments. The cell culture media were removed and the cells were washed three times with PBS. Then, fresh medium containing the virus supernatant was added at MOI of 2, followed by incubation for 1 h with gentle shaking every 15 min. The viral residues were removed by washing with PBS, and serial dilutions of the Ltc 1 peptide (0, 2.5, 5, 10, 20, 40, 80 μM) were added. […] The cell supernatants were collected and stored at -80°C for viral load determination using viral RNA and were quantified using one step qReal time-PCR.
The DENV2 copy number was quantified in the culture supernatants using one-step quantitative real-time PCR. Known copies of the viral RNA were 10-fold serially diluted to generate a standard curve. The viral RNA was extracted using the QIAmp viral RNAmini kit (QIAGEN, Germany), and the qRT-PCR was performed using a SYBR Green Master Kit (Qiagen, Germany). Triplicate reactions were performed for each sample, and a no template control was included as a negative control. Absolute quantification was performed using an ABI7500 machine (Applied Biosystems, Foster City, CA). The results were analysed using Sequence Detection Software Version 1.3 (Applied Biosystems, Foster City, CA). The percentage of viral inhibition (%) was calculated as follows: 100 – (viral copy number of treated cells/viral copy number of untreated cells) × 100.
On the technique in general: Real-time PCR tracks product formation cycle by cycle.

The test system of data set [3] is Vero cells. Briefly: Cytotoxicity, Non-Radioactive Cell Proliferation assay. The data set is classed as cell-based. Conditions: Vero cells (method), 72 h. The procedure: The cytotoxicity of the Ltc 1 peptides was evaluated by determining the maximal non-toxic dose (MNTD) and the 50% cytotoxic concentration (CC50) of the cells using the Non-Radioactive Cell Proliferation assay (Promega, USA) according to the manufacturer’s instructions. […] Vero cells were seeded at 1×10^4 cells/well in triplicate under optimal conditions (37°C, 5% CO2 in a humidified incubator) in 96-well plates with blank controls (media only) and cell controls (cells only). After an overnight incubation, the cells were treated with increasing concentrations of Ltc 1 peptide (0, 4, 8, 16, 32, 64 and 120 μM) with DMEM medium supplemented with 2% FBS and the cell culture was analysed after 72 h. The percentage of cell viability was calculated as follows: […] (absorbance of treated cells/absorbance of untreated cells) × 100. The MNTD and CC50 values were calculated from the dose-response curves.

For data set [4], the system named is HepG2 cells. Briefly: Real Time Cell Proliferation Assay (RTCA, xCELLigence). It is filed as cell-based, human. The procedure: This assay was performed to test the real time effects of the Ltc 1 peptide on cell viability. Cell proliferation was measured using the xCELLigence Real-Time Cellular Analysis (RTCA) system (Roche, Germany) as described previously. Cell viability and growth were monitored continuously after applying increasing concentrations of the Ltc 1 peptide (0, 12.5, 25, 50, 100, 150, 200, 250 μM). Briefly, the background measurements were recorded after adding 100 μl culture medium to the wells. Next, the cells were seeded at a density of 1 × 10^4 cell/well in a 16-well plate with electrodes for 18 h to allow the cells to grow to log phase. The cells were treated with different concentrations of peptide dissolved in cell culture medium and continuously monitored for up to 100 h. The cell sensor impedance was expressed as an arbitrary unit named the cell index. The cell index was recorded every 5 minutes using a RTCA analyser. To eliminate variation between the wells, the cell index values were normalised to the value at the beginning of the treatment.

Data set [5] has as its target T1, dengue NS2B-NS3pro (DENV2 serine protease, recombinant single chain NS2B (G4-T-G4) NS3pro) (Dengue virus type 2, UniProt P14340).
T1 construct: 1394–1440 in DENV2 polyprotein; 1476–1660 in DENV2 polyprotein; made in house; host or cells: E. coli
Briefly: Dengue NS2B-NS3 protease (NS2B-NS3pro) assay. The note with it: 2 μM NS2B-NS3pro, 100 μM Boc-Gly-Arg-Arg-AMC, pH 8.5, 200 mM Tris-HCl, 30 min pre-incubation + 30 min with substrate, fluorescence ex 350/em 440 nm, triplicate, repeated twice, ± SD, read-out: IC50 (inhibitory concentration of 50% of enzyme activity). It is filed as biochemical, Dengue virus serotype-2 (DENV2). The method, then:
The NS2B-NS3pro assay was performed to examine whether the Ltc 1 peptide inhibits the DENV2 serine protease. Briefly, a single chain NS2B (G4-T-G4) NS3pro was produced as a recombinant protein in E. coli as previously described. The end point reaction mixture was performed in black 96-well plates, which contained 2 μM recombinant NS2B-NS3pro, 100 μM fluorogenic peptide substrate (Boc-Gly-Arg-Arg-AMC) and varying concentrations of the Ltc 1 peptide (0.1 to 40 μM) buffered at pH 8.5 with 200 mM Tris-HCl in a total volume of 200 μl. The reaction mixtures without peptide, substrate with the peptides, enzyme and different concentrations of the peptides were used as controls. […] Measurements were performed in triplicate using a Tecan Infinite M200 Pro fluorescence spectrophotometer (Tecan Group Ltd., Switzerland). […] The fluorescence values obtained with the no-inhibitor control (0.0 μM peptide) were set at 100%, and those in the presence of peptide were calculated as a percentage of the control using non-linear regression in GraphPad Prism (version 5.01) software. The IC50 was calculated from nonlinear regression fitting of the signal vs. concentration data points to the standard dose–response equation Y = Bottom + (Top - Bottom)/(1 + 10^^((X - LogIC50))). […] The inhibition percentage was calculated using the following formula: […]

The conditions of data set [6]: cited from earlier work. The text has this: Natural antimicrobial peptides (AMPs) are produced in the majority of living organisms as protection against various pathogens, including viruses. […] Therefore, the objective of this study was to identify and characterise the inhibitory potential of the latarcin peptide (Ltc 1, […]) against dengue virus replication in human cells. Ltc 1 is one of approximately seven latarcin peptides, which are produced in the venom gland of Lachesana tarab ...

Data set [7] has as its system dengue protease NS2B-NS3pro. The note with it: compared to the other standard serine protease inhibitors; cited from earlier work. An excerpt:
Previous studies reported various inhibitors against dengue protease, including standard serine protease inhibitors, substrate based inhibitors, and non-substrate based inhibitors.

Read-outs that look alike come from different tables or passages of the source. No end group written: not given here.

One may read the EC50 as the midpoint of the concentration-response curve. Low values mean a more potent agent, high ones a less potent agent. Usually cell viability stands for the share of living cells, or the viability signal relative to a control.

T1 sequence (P14340 1476-1660): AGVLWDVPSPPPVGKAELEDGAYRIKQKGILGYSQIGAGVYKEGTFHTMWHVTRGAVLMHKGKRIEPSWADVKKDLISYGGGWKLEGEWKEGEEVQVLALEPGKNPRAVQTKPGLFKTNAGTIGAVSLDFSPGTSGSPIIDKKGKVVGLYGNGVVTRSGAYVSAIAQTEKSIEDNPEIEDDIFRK
T1 sequence (P14340 1394-1440): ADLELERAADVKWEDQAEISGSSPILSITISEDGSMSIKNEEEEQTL

As to SMWSGMWRRKLKKLRNALKKKLKGE [Ltc 1], the “induction of cell apoptosis” value in data set [1] is listed as “induces cellular changes that lead to cell apoptosis”. The EC50 was found to be 8.3 ± 1.2 µM in data set [2] (24 h), 7.6 ± 2.7 µM in data set [2] (48 h) and 6.8 ± 2.5 µM in data set [2] (72 h). Besides, the cell viability in data set [3] (25 μM peptide) is reported as 80%. In addition, the “CC50 (50% cytotoxic concentration)” value in data set [3] (0-120 μM peptide, DMEM 2% FBS, 37°C, triplicate, ± SD) was “approximately 52.51 ± 3.6 μM”. The “effect on cell proliferation” value in data set [4] (25 μM, 110 h, cell index similar to untreated control cells) was “insignificant”; in data set [4] (50 μM, after 66 h of incubation, HepG2 cells), “significantly decreased”; in data set [4] (concentrations higher than 50 μM, all time-points), “toxic to the cells”. In addition, the “maximal non-toxic dose (MNTD)” value in data set [4] (HepG2 cells, real-time cell index, concentrations 0-250 μM) was 25 µM. The figures for the IC50 in data set [5] (37°C) and in data set [5] (40°C (high fever-like)) were 12.7 ± 3.2 µM and 6.58 ± 4.1 µM, respectively. Also, the haemolytic activity result in data set [6] is given as “moderate haemolytic activity”.

With aprotinin, the “inhibitory effect against the dengue protease” value in data set [7] is “picomolar levels”.

These data come from paper PMC4073510, “Identification of natural antimicrobial agents to treat dengue infection: In vitro analysis of latarcin peptide activity against dengue virus” (BMC Microbiology, 2014).
